Results as given in paper PMC3382171 (PLoS ONE, 2012).

Legend:
Assay in all cases: biochemical
Settings in all cases: read-out: Upstate KSS % inhibition at 1uM
MKK6 = target: T1, MKK6 (Homo sapiens, UniProt P52564)
T1 construct: gene MAP2K6
Method: (§1) In these selectivity assays the concentration of ATP was set to the Km value of ATP for each kinase tested to allow for a relative potency comparison between the various kinases. The compounds were tested at 1 µM final concentration. […] (A) Kinase selectivity screen (KSS) performed at Upstate Biotechnology. […] (B) KSS performed at University of Dundee (Division of Signal Transduction Therapy). […] (PDF) Click here for additional data file.

mouse MKK4 = target: T2, mouse MKK4 (Mus musculus, UniProt P47809)
T2 construct: gene Map2k4
Method: as §1

AXL = AXL (Homo sapiens, UniProt P30530)
Method: as §1

PKCalpha = target: T3, PKCalpha (Homo sapiens, UniProt P17252)
T3 construct: gene PRKCA
Method: as §1

PRAK = target: T4, PRAK (Homo sapiens, UniProt Q8IW41)
T4 construct: gene MAPKAPK5
Method: as §1

FYN = FYN (Homo sapiens, UniProt P06241)
Method: as §1

LCK = LCK (Homo sapiens, UniProt P06239)
Method: as §1

Ros = target: T5, Ros (Homo sapiens, UniProt P08922)
T5 construct: gene ROS1
Method: as §1

BLK = BLK (Homo sapiens, UniProt P51451)
Method: as §1

TrkB = target: T6, TrkB (Homo sapiens, UniProt Q16620)
T6 construct: gene NTRK2
Method: as §1

Yes = target: T7, Yes (Homo sapiens, UniProt P07947)
T7 construct: gene YES1
Method: as §1

GRK3 = GRK3 (Homo sapiens, UniProt P35626)
Method: as §1

c-RAF = target: T8, c-RAF (Homo sapiens, UniProt P04049)
T8 construct: gene RAF1
Method: as §1

SAPK4 = target: T9, SAPK4 (Homo sapiens, UniProt O15264)
T9 construct: gene MAPK13
Method: as §1

PRK2 = target: T10, PRK2 (Homo sapiens, UniProt Q16513)
T10 construct: gene PKN2
Method: as §1

IR = target: T11, IR (Homo sapiens, UniProt P06213)
T11 construct: gene INSR
Method: as §1

MNK2 = target: T12, MNK2 (Homo sapiens, UniProt Q9HBH9)
T12 construct: gene MKNK2
Method: as §1

ASK1 = target: T13, ASK1 (Homo sapiens, UniProt Q99683)
T13 construct: gene MAP3K5
Method: as §1

DDR2 = DDR2 (Homo sapiens, UniProt Q16832)
Method: as §1

FGR = FGR (Homo sapiens, UniProt P09769)
Method: as §1

MAPK2 = target: T14, MAPK2 (Homo sapiens, UniProt P28482)
T14 construct: gene MAPK1
Method: as §1

ROCK-11 = target: T15, ROCK-11 (Homo sapiens, UniProt O75116)
T15 construct: gene ROCK2
Method: as §1

HIPK2 = HIPK2 (Homo sapiens, UniProt Q9H2X6)
Method: as §1

PKBgamma = target: T16, PKBgamma (Homo sapiens, UniProt Q9Y243)
T16 construct: gene AKT3
Method: as §1

CDK7/cyclinH = CDK7/cyclinH (Homo sapiens, UniProt P50613)
Method: as §1

Arg = target: T17, Arg (Homo sapiens, UniProt P42684)
T17 construct: gene ABL2
Method: as §1

ZIPK = target: T18, ZIPK (Homo sapiens, UniProt O43293)
T18 construct: gene DAPK3
Method: as §1

PAK2 = PAK2 (Homo sapiens, UniProt Q13177)
Method: as §1

CDK1/cyclinB = CDK1/cyclinB (Homo sapiens, UniProt P06493)
Method: as §1

rat CK1delta = target: T19, rat CK1delta (Rattus norvegicus, UniProt Q06486)
T19 construct: gene Csnk1d
Method: as §1

BMX = BMX (Homo sapiens, UniProt P51813)
Method: as §1

FGFR3 = FGFR3 (Homo sapiens, UniProt P22607)
Method: as §1

GSK3beta = target: T20, GSK3beta (Homo sapiens, UniProt P49841)
T20 construct: gene GSK3B
Method: as §1

Fms = target: T21, Fms (Homo sapiens, UniProt P07333)
T21 construct: gene CSF1R
Method: as §1

T18 sequence (O43293 whole entry): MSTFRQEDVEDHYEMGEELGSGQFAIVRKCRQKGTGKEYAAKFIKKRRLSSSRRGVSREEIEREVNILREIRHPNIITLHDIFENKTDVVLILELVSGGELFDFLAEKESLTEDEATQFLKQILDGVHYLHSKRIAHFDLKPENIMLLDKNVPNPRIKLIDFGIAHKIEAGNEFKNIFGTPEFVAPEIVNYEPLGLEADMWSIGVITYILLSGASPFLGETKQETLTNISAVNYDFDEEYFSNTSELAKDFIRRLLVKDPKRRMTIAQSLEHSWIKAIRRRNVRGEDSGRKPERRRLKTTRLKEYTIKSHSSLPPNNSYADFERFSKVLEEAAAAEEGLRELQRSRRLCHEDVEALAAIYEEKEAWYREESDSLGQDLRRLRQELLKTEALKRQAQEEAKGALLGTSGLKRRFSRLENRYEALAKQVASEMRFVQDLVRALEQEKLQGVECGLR
T9 sequence (O15264 whole entry): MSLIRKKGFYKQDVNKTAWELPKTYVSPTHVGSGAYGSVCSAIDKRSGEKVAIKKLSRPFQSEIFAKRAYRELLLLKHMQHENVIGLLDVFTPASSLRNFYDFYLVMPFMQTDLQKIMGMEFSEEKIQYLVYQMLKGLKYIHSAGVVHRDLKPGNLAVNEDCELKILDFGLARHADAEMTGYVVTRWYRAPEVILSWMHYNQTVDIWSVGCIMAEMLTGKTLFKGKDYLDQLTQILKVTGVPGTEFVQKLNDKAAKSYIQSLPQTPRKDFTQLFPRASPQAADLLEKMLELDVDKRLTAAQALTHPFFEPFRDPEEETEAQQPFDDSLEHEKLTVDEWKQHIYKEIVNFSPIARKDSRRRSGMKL
T20 sequence (P49841 whole entry): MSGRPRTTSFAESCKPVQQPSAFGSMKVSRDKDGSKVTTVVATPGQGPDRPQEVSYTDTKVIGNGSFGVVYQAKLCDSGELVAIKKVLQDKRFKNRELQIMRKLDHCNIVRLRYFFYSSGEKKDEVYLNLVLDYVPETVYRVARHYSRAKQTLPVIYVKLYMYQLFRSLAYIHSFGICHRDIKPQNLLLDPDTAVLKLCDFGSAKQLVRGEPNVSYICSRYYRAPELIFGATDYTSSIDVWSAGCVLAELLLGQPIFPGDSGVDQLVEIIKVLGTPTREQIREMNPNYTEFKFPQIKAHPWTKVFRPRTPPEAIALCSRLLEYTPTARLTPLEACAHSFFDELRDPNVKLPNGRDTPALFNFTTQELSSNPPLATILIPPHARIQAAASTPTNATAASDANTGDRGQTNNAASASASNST
Chain of CDK7/cyclinH (P50613 whole entry): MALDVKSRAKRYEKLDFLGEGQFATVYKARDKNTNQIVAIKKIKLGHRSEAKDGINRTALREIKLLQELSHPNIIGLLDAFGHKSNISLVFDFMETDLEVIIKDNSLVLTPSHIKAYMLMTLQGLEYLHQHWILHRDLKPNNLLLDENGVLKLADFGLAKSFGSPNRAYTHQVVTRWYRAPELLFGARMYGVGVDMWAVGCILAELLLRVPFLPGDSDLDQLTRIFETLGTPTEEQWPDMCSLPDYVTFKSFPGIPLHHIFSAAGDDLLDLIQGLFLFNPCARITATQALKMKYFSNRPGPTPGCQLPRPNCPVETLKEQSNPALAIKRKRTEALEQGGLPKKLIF
T14 sequence (P28482 whole entry): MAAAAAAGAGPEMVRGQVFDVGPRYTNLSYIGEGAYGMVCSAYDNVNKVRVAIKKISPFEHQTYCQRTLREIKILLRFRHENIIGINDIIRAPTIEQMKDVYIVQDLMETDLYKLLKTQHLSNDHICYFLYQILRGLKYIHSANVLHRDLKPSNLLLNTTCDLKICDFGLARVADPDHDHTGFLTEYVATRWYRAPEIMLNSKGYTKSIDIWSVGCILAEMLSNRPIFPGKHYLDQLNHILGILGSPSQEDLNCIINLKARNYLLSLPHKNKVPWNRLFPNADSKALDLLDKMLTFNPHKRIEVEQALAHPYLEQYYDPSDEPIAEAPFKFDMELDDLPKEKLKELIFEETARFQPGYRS
T11 sequence (P06213 whole entry): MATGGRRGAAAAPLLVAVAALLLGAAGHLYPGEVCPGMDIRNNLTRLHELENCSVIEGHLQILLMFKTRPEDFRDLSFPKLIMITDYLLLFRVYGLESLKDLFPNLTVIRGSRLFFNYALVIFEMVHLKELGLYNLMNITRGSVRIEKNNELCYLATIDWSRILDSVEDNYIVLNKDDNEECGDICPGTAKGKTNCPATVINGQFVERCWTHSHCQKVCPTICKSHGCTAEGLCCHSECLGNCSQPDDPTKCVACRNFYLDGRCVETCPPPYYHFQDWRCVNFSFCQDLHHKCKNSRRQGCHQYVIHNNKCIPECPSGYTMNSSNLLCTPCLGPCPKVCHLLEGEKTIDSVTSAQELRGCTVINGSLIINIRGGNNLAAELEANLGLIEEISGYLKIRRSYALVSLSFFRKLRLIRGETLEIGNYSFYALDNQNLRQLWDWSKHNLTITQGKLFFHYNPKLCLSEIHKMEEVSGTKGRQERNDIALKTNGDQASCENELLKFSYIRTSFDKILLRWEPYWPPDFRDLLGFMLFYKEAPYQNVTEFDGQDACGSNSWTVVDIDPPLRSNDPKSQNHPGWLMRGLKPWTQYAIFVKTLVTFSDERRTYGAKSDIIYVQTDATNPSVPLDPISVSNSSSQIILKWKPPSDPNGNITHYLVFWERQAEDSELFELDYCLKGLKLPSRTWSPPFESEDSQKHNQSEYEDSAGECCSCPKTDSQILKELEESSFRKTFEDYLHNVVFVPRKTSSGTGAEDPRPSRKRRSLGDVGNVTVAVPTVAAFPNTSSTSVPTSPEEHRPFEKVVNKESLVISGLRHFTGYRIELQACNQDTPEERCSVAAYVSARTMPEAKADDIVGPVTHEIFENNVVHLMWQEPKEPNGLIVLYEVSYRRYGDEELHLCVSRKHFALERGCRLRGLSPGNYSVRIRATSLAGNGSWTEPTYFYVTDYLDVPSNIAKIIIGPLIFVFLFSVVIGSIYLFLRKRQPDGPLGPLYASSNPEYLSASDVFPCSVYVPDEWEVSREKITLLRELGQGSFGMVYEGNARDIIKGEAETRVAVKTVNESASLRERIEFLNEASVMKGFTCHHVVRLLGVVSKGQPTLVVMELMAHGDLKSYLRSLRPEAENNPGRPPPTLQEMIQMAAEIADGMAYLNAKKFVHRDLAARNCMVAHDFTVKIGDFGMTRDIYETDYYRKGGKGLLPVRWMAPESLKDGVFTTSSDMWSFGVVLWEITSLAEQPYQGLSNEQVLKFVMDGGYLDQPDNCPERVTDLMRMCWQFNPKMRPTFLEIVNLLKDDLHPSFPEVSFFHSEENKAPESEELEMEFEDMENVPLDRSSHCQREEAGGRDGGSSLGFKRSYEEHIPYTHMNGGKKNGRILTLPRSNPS
T7 sequence (P07947 whole entry): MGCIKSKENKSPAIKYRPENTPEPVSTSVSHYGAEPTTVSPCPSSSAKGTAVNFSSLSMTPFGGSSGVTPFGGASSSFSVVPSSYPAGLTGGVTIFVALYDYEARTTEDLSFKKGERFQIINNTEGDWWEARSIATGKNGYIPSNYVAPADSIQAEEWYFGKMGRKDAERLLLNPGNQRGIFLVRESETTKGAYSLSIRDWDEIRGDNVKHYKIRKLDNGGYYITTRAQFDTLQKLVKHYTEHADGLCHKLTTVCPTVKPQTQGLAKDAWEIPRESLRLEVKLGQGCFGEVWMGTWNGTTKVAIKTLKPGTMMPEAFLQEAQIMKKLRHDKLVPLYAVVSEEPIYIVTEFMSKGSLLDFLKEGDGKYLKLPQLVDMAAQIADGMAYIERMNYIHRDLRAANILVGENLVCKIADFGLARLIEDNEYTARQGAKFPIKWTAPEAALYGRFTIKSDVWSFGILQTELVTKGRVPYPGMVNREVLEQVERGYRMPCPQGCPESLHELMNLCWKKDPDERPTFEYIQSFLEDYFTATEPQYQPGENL
T10 sequence (Q16513 whole entry): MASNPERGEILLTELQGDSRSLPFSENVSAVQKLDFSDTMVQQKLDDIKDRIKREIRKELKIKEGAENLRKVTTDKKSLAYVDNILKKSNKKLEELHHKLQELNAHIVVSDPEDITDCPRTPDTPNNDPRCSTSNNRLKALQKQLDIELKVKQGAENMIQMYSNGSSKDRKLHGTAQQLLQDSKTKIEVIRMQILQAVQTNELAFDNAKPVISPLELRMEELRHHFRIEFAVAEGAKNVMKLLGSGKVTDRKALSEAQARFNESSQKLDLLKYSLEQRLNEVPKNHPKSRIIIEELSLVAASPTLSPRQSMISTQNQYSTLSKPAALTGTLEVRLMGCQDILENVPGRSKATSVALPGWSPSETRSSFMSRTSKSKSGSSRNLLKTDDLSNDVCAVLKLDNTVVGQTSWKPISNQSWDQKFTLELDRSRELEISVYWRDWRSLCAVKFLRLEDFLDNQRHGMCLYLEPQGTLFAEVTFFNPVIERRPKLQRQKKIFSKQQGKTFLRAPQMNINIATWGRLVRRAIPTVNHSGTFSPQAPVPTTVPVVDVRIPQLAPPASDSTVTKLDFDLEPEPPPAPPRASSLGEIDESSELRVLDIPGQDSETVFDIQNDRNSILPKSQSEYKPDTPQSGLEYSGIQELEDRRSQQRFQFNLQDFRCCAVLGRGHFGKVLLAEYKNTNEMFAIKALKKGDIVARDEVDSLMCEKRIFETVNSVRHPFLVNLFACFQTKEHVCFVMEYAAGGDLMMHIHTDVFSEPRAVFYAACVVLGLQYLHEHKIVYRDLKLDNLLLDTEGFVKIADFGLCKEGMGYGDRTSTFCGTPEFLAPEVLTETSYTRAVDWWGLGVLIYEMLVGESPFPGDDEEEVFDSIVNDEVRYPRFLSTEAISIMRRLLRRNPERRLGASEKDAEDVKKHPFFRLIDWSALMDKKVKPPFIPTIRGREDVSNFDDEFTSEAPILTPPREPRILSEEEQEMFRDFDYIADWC

inhibition at 1 µM (MKK6): -13%
inhibition at 1 µM (mouse MKK4): -2%
inhibition at 1 µM (AXL): -11%
inhibition at 1 µM (PKCalpha): -7%
inhibition at 1 µM (PRAK): -2%
inhibition at 1 µM (FYN): -20%
inhibition at 1 µM (LCK): -8%
inhibition at 1 µM (Ros): 0%
inhibition at 1 µM (BLK): 5%
inhibition at 1 µM (TrkB): 10%
inhibition at 1 µM (Yes): 16%
inhibition at 1 µM (GRK3): -1%
inhibition at 1 µM (c-RAF): -16%
inhibition at 1 µM (SAPK4): -18%
inhibition at 1 µM (PRK2): -11%
inhibition at 1 µM (IR): 8%
inhibition at 1 µM (MNK2): 0%
inhibition at 1 µM (ASK1): -11%
inhibition at 1 µM (DDR2): 0%
inhibition at 1 µM (FGR): 0%
inhibition at 1 µM (MAPK2): -7%
inhibition at 1 µM (ROCK-11): 0%
inhibition at 1 µM (HIPK2): 8%
inhibition at 1 µM (PKBgamma): 5%
inhibition at 1 µM (CDK7/cyclinH): -14%
inhibition at 1 µM (Arg): 10%
inhibition at 1 µM (ZIPK): 0%
inhibition at 1 µM (PAK2): -9%
inhibition at 1 µM (CDK1/cyclinB): -7%
inhibition at 1 µM (rat CK1delta): -4%
inhibition at 1 µM (BMX): -10%
inhibition at 1 µM (FGFR3): -1%
inhibition at 1 µM (GSK3beta): -1%
inhibition at 1 µM (Fms): -12%
SMILES: OCCn1cc(-c2cnc3nnn(Cc4ccc5ncccc5c4)c3n2)cn1 [METi, PF-04217903]
